The values below are quoted from earlier work in publication PMC5383348 (Trends in cancer, 2017).

For data set [1], the system named is xenograft models for triple-negative breast cancer and multiple myeloma.
Data set [2] deals with cultured cancer cell lines for triple-negative breast cancer and multiple myeloma.
In data set [3] the test system is recombinant human GLS. The conditions noted are these: read-out: IC50 value against recombinant human GLS.

As for `O=C(Cc1cccc(OC(F)(F)F)c1)Nc1ccc(CCCCc2nnc(NC(=O)Cc3ccccn3)s2)nn1` [CB-839], the “efficacy against xenograft models” value in data set [1] is “shown efficacy”. For the same compound, the “efficacy against cultured cancer cell lines” value in data set [2] is recorded as “shown efficacy”. Also, in data set [3], the IC50 is below 50 nM.
